Laboratory results published in patent US20230406843A1, “Progranulin Modulators and Methods of Using the Same” (ARKUDA THERAPEUTICS, priority 2020, published 2023).
Read-outs that look alike come from different tables or passages of the source.

Tested on: progranulin
Assay: Progranulin induction cellular assay (ELISA of secreted mouse PGRN)
Assay type: cell-based
Procedure, shortened: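 Secreted mouse PGRN in culture medium is measured by ELISA. Cells tested are BV-2, primary cortical neurons and primary microglia. BV-2 cells are plated a day ahead, allowed 1 h to attach, then incubated 16 h.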

[1] = progranulin induction assay, mouse pMG, primary cortical neurons and BV-2 cell lines named, cell type not given, ELISA-based readout, read-out: EC50
[2] = Mus musculus, BV-2, read-out: EC50 μM

EC50 [1] [µM] | Structure (SMILES) | EC50 [2] [µM]
0.401 | N[C@]1(CO)CC[C@@H](C(=O)N2CCc3ccccc3[C@@H]2c2ccc(F)cc2)OC1 [Compound 5213, ((2S,5S)-5-amino-5-(hydroxymethyl)tetrahydro-2H-pyran-2-yl)((S)-1-(4-fluorophenyl)-3,4-dihydroisoquinolin-2(1H)-yl)methanone] | –
0.08 | N[C@@]1(CO)CC[C@@H](C(=O)N2CCc3ccccc3[C@@H]2c2ccc(F)cc2)OC1 [Compound 5214, ((2S,5R)-5-amino-5-(hydroxymethyl)tetrahydro-2H-pyran-2-yl)((S)-1-(4-fluorophenyl)-3,4-dihydroisoquinolin-2(1H)-yl)methanone] | –
0.14 | N[C@@]1(CO)CC[C@H](C(=O)N2CCc3ccccc3[C@@H]2c2ccc(F)cc2)OC1 [Compound 5215, ((2R,5R)-5-amino-5-(hydroxymethyl)tetrahydro-2H-pyran-2-yl)((S)-1-(4-fluorophenyl)-3,4-dihydroisoquinolin-2(1H)-yl)methanone] | –
0.295 | N[C@]1(CO)CC[C@H](C(=O)N2CCc3ccccc3[C@@H]2c2ccc(F)cc2)OC1 [Compound 5216, ((2R,5S)-5-amino-5-(hydroxymethyl)tetrahydro-2H-pyran-2-yl)((S)-1-(4-fluorophenyl)-3,4-dihydroisoquinolin-2(1H)-yl)methanone] | –
0.316 | C[C@]1(C(=O)N2CCc3ccccc3[C@@H]2c2ccc(F)cc2)CCNCCO1 [Compound 5239] | –
0.631 | C[C@@]1(C(=O)N2CCc3ccccc3[C@@H]2c2ccc(F)cc2)CCNCCO1 [Compound 5240] | –
0.2 | O=C([C@@H]1OCCNC[C@@H]1O)N1CCc2ccccc2[C@@H]1c1ccc(F)cc1 [Compound 5243, ((S)-1-(4-fluorophenyl)-3,4-dihydroisoquinolin-2(1H)-yl)((6S,7R)-6-hydroxy-1,4-oxazepan-7-yl)methanone] | –
0.091 | O=C([C@H]1OCCNC[C@@H]1O)N1CCc2ccccc2[C@@H]1c1ccc(F)cc1 [Compound 5244] | –
0.35 | O=C([C@@H]1OCCNC[C@H]1O)N1CCc2ccccc2[C@@H]1c1ccc(F)cc1 [Compound 5245] | –

The remaining lines, values behind:

Structure (SMILES) | EC50 [1] [µM] | EC50 [2] [µM]
N[C@H]1C[C@@H](C(=O)N2CCc3ccccc3[C@@H]2c2ccc(F)cc2)OC[C@@H]1O [Compound 5083, ((2S,4S,5R)-4-amino-5-hydroxytetrahydro-2H-pyran-2-yl)((S)-1-(4-fluorophenyl)-3,4-dihydroisoquinolin-2(1H)-yl)methanone] | 0.084 | –
C[C@@H]1C[C@@H](C(=O)N2CCc3ccccc3[C@@H]2c2ccc(F)cc2)OC[C@@H]1N [Compound 5084, ((2S,4R,5R)-5-amino-4-methyltetrahydro-2H-pyran-2-yl)((S)-1-(4-fluorophenyl)-3,4-dihydroisoquinolin-2(1H)-yl)methanone] | 0.18 | –
CN(C)[C@@H]1CO[C@@H](C(=O)N2CCc3ccccc3[C@@H]2c2ccc(F)cc2)C[C@@H]1O [Compound 5085, ((2R,4S,5R)-5-(dimethylamino)-4-hydroxytetrahydro-2H-pyran-2-yl)((S)-1-(4-fluorophenyl)-3,4-dihydroisoquinolin-2(1H)-yl)methanone] | 0.316 | –
N[C@H]1CO[C@H](C(=O)N2CCc3ccccc3[C@@H]2c2ccc(F)cc2)C[C@H]1F [Compound 5086, ((2S,4R,5S)-5-amino-4-fluorotetrahydro-2H-pyran-2-yl)((S)-1-(4-fluorophenyl)-3,4-dihydroisoquinolin-2(1H)-yl)methanone] | 0.194 | –
N[C@H]1C[C@H](C(=O)N2CCc3ccccc3[C@@H]2c2ccc(F)cc2)OC[C@H]1F [Compound 5087, ((2R,4S,5S)-4-amino-5-fluorotetrahydro-2H-pyran-2-yl)((S)-1-(4-fluorophenyl)-3,4-dihydroisoquinolin-2(1H)-yl)methanone] | 0.0421 | –
CCO[C@H]1C[C@H](C(=O)N2CCc3ccccc3[C@@H]2c2ccc(F)cc2)OC[C@H]1N [Compound 5088, ((2R,4S,5R)-5-amino-4-ethoxytetrahydro-2H-pyran-2-yl)((S)-1-(4-fluorophenyl)-3,4-dihydroisoquinolin-2(1H)-yl)methanone] | 0.074 | –
N[C@@H]1CO[C@@H](C(=O)N2CCc3ccccc3[C@@H]2c2ccc(F)cc2)C[C@@H]1OC(F)F [Compound 5089, ((2R,4S,5R)-5-amino-4-(difluoromethoxy)tetrahydro-2H-pyran-2-yl)((S)-1-(4-fluorophenyl)-3,4-dihydroisoquinolin-2(1H)-yl)methanone] | 0.062 | –
N[C@@H]1C[C@H](C(=O)N2CCc3ccccc3[C@@H]2c2ccc(F)cc2)OC[C@H]1O [Compound 5092, ((2R,4R,5S)-4-amino-5-hydroxytetrahydro-2H-pyran-2-yl)((S)-1-(4-fluorophenyl)-3,4-dihydroisoquinolin-2(1H)-yl)methanone] | 0.184 | –
N[C@@H]1CC[C@H](C(=O)N2CCc3ccccc3[C@@H]2c2ccc(F)cc2F)OC1 [Compound 5207] | 0.182 | –
N[C@H]1CO[C@@H](C(=O)N2CCc3ccccc3[C@@H]2c2ccc(F)cc2)C[C@@H]1F [Compound 5210, ((2R,4S,5S)-5-amino-4-fluorotetrahydro-2H-pyran-2-yl)((S)-1-(4-fluorophenyl)-3,4-dihydroisoquinolin-2(1H)-yl)methanone] | 0.596 | –
O=C([C@H]1CC[C@@H](NCCO)CO1)N1CCc2ccccc2[C@@H]1c1ccc(F)cc1 [Compound 5211, ((S)-1-(4-fluorophenyl)-3,4-dihydroisoquinolin-2(1H)-yl)((2R,5R)-5-((2-hydroxyethyl)amino)tetrahydro-2H-pyran-2-yl)methanone] | 0.209 | –
COCCN[C@@H]1CC[C@H](C(=O)N2CCc3ccccc3[C@@H]2c2ccc(F)cc2)OC1 [Compound 5212, ((S)-1-(4-fluorophenyl)-3,4-dihydroisoquinolin-2(1H)-yl)((2R,5R)-5-((2-methoxyethyl)amino)tetrahydro-2H-pyran-2-yl)methanone] | 0.314 | –
COC[C@@]1(N)CC[C@@H](C(=O)N2CCc3ccccc3[C@@H]2c2ccc(F)cc2)OC1 [Compound 5217, ((2S,5S)-5-amino-5-(methoxymethyl)tetrahydro-2H-pyran-2-yl)((S)-1-(4-fluorophenyl)-3,4-dihydroisoquinolin-2(1H)-yl)methanone] | – | 0.226
COC[C@]1(N)CC[C@@H](C(=O)N2CCc3ccccc3[C@@H]2c2ccc(F)cc2)OC1 [Compound 5218, ((2S,5R)-5-amino-5-(methoxymethyl)tetrahydro-2H-pyran-2-yl)((S)-1-(4-fluorophenyl)-3,4-dihydroisoquinolin-2(1H)-yl)methanone] | – | 0.12
COC[C@]1(N)CC[C@H](C(=O)N2CCc3ccccc3[C@@H]2c2ccc(F)cc2)OC1 [Compound 5219, ((2R,5R)-5-amino-5-(methoxymethyl)tetrahydro-2H-pyran-2-yl)((S)-1-(4-fluorophenyl)-3,4-dihydroisoquinolin-2(1H)-yl)methanone] | – | 0.006
COC[C@@]1(N)CC[C@H](C(=O)N2CCc3ccccc3[C@@H]2c2ccc(F)cc2)OC1 [Compound 5220, ((2R,5S)-5-amino-5-(methoxymethyl)tetrahydro-2H-pyran-2-yl)((S)-1-(4-fluorophenyl)-3,4-dihydroisoquinolin-2(1H)-yl)methanone] | – | 0.081
